Measurements taken from patent US12496297B1, “Compositions of autophagy modulating agents and uses thereof” (Washington University, priority 2020, dated 2025).

Test system: α1-antitrypsin Z variant (ATZ)
Test: Steady state levels of ATZ in HTO/Z cell line (immunoblot); activity of G2 analogs
Format: cell-based, human
Settings: 48 hrs incubation, immunoblot, FIG. 8 / FIG. 14
Procedure: For experiments with G2 analogs, Tet-off inducible cell lines were cultured in absence of doxycycline for at least 12 days to ensure expression of […] or its variants. The cells were then sub-cultured into separate monolayers in fresh complete growth medium and incubated for 48 hours in the absence or presence of G2 analog. […] All compounds available commercially were purchased except for G2-22, which was synthesized with routine chemistry.
Cells were lysed in NP40 buffer and then separated into insoluble and soluble fractions according to a previously established technique. Samples were subjected to immunoblot analysis for AT and GAPDH. For immmunoblot analysis to detect AT or GAPDH, cells were lysed in 50 mM Tris-HCl, 150 mM NaCl, 1% NP-40, pH 8.0. Protein concentrations were determined by BCA protein assay (Pierce Biotechnology, Rockford, IL). […] The membranes were blocked in 5% milk and then incubated overnight at 4° C. with primary antibody for AT (1:1000, Diasorin), LC3 (1:2000, Sigma), p62 (1:1000, Cell signaling, Danvers, MA), ATG5 (1:1000, Cell signaling), mTOR substrate sampler (1:1000 for all antibodies, Cell signaling). Donkey anti-goat Ig (Jackson Labs, Bar Harbor, ME), goat anti-rabbit lg (1:50,000), or goat anti-mouse Ig (1:50,000) were used as secondary antibodies in TBST at RT, 1 hour. Blots were visualized with ECL or West Femto from Pierce. Membranes were re-probed with GAPDH (1:5000, Sigma) as loading control. Insoluble samples were stained with Gel Code Blue as loading control.

Q: How did the “effect on cellular ATZ levels” value turn out when `CCCCCCOc1cc(Cl)cc2[nH]c(=O)ccc12` [G2-218, 7-chloro-5-(hexyloxy)quinolin-2(1H)-one] was run?
A: The value was “reduce ATZ levels in a dose-dependent manner”.

Same assay, conditions: G2 and G2 analogs; positive activity if shown to have any activity, not quantified

Q: Which Activity does the source give for `CNC(=O)c1cc(Cl)ccc1OC` [G2-3, 5-chloro-2-methoxy-N-methylbenzamide] here?
A: The Activity was “Active”.

Q: For `CNC(=O)c1cc(F)ccc1OC` [G2-4, 5-fluoro-2-methoxy-N-methylbenzamide], which Activity is on record?
A: Its Activity is “Inactive”.

Q: For `NC(=O)c1cc(Cl)ccc1OC(F)(F)F` [G2-6, 5-chloro-2-(trifluoromethoxy)benzamide], which Activity is on record?
A: Its Activity is “Inactive”.

Q: With `CN1CCNC(=O)c2cc(Cl)ccc21` [G2-11, 7-chloro-1-methyl-1,2,3,4-tetrahydro-5H-benzo[e][1,4]diazepin-5-one] as the compound, how does the Activity read?
A: Its Activity is “Inactive”.

Q: With `CNC(=O)c1cc(Cl)ccc1OC1CC1` [G2-12, 5-chloro-2-cyclopropoxy-N-methylbenzamide] as the compound, how does the Activity read?
A: Its Activity is “Active”.

Q: For `CNC(=O)c1cc(Cl)ccc1OC1CCN(C2CCCC2)CC1` [G2-12-2, 5-chloro-2-((1-cyclopentylpiperidin-4-yl)oxy)-N-methylbenzamide], which Activity is on record?
A: Its Activity is “Inactive”.

Q: `CNC(=O)c1cc(Cl)ccc1OCc1ccccc1` [G2-12-3, 2-(benzyloxy)-5-chloro-N-methylbenzamide] was tested. Which Activity did it give?
A: Its Activity is “Inactive”.

Q: `COc1ccc(Cl)cc1C(=O)N(C)C` [G2-13, 5-chloro-2-methoxy-N,N-dimethylbenzamide] was tested. Which Activity did it give?
A: Its Activity is “Active”.

Q: `COc1ccc(Cl)cc1C(=O)NCC(C)C` [G2-14, 5-chloro-N-isobutyl-2-methoxybenzamide] was tested. Which Activity did it give?
A: Its Activity is “Inactive”.

Q: With `COc1ccc(Cl)cc1C(=O)NCCCCO` [G2-15, 5-chloro-N-(4-hydroxybutyl)-2-methoxybenzamide] as the compound, how does the Activity read?
A: Its Activity is “Inactive”.

Q: For `CNC(=O)c1cc(Cl)ccc1Oc1ccc(Cl)cc1` [G2-16, 5-chloro-2-(4-chlorophenoxy)-N-methylbenzamide], which Activity is on record?
A: The Activity was “Inactive”.

Q: With `CNC(=O)c1cc(Cl)ccc1OCCC(C)C` [G2-17, 5-chloro-2-(isopentyloxy)-N-methylbenzamide] as the compound, how does the Activity read?
A: Its Activity is “Inactive”.

Q: With `Cn1ccc2c(Cl)cccc2c1=O` [G2-22, 5-chloro-2-methylisoquinolin-1(2H)-one] as the compound, how does the Activity read?
A: The Activity was “Active”.

Q: With `Cn1ccc2ccc(Cl)cc2c1=O` [G2-23, 7-chloro-2-methylisoquinolin-1(2H)-one] as the compound, how does the Activity read?
A: The Activity was “Inactive”.

Q: For `Cn1ccc2cccc(Cl)c2c1=O` [G2-24, 8-chloro-2-methylisoquinolin-1(2H)-one], which Activity is on record?
A: The Activity was “Inactive”.

Q: Which Activity does the source give for `O=c1[nH]ccc2cc(Cl)ccc12` [G2-25, 6-chloroisoquinolin-1(2H)-one] here?
A: Its Activity is “Active”.

Q: For `Cn1cnc2cc(Cl)ccc2c1=O` [G2-27, 7-chloro-3-methylquinazolin-4(3H)-one], which Activity is on record?
A: The Activity was “Inactive”.

Q: How did the Activity turn out when `CN1Cc2cc(Cl)ccc2C1=O` [G2-28, 5-chloro-2-methylisoindolin-1-one] was run?
A: Its Activity is “Active”.

Q: `Cn1ccc2cc(S(C)(=O)=O)ccc2c1=O` [G2-29, 2-methyl-6-(methylsulfonyl)isoquinolin-1(2H)-one] was tested. Which Activity did it give?
A: Its Activity is “Active”.

Q: How did the Activity turn out when `COc1ccc2c(=O)n(C)ccc2c1` [G2-30, 6-methoxy-2-methylisoquinolin-1(2H)-one] was run?
A: The Activity was “Active”.

Q: With `Cn1ccc2cc(C#N)ccc2c1=O` [G2-31, 2-methyl-1-oxo-1,2-dihydroisoquinoline-6-carbonitrile] as the compound, how does the Activity read?
A: Its Activity is “Inactive”.

Q: Which Activity does the source give for `Cn1ccc2ccccc2c1=O` [G2-34, 2-methylisoquinolin-1(2H)-one] here?
A: The Activity was “Inactive”.

Q: How did the Activity turn out when `Cn1c(=O)ccc2cc(Cl)ccc21` [G2-37, 6-chloro-1-methylquinolin-2(1H)-one] was run?
A: The Activity was “Active”.

Q: `Cc1cn(C)c(=O)c2ccc(Cl)cc12` [G2-38, 6-chloro-2,4-dimethylisoquinolin-1(2H)-one] was tested. Which Activity did it give?
A: The Activity was “Inactive”.

Q: With `Cn1ccc2cc(-c3ccccn3)ccc2c1=O` [G2-39, 2-methyl-6-(pyridin-2-yl)isoquinolin-1(2H)-one] as the compound, how does the Activity read?
A: Its Activity is “Inactive”.

Q: How did the Activity turn out when `CNC(=O)c1cccc(Cl)c1OC` [G2-40, 3-chloro-2-methoxy-N-methylbenzamide] was run?
A: The Activity was “Inactive”.

Q: Which Activity does the source give for `Cn1ccc2cc(-c3ccccc3)ccc2c1=O` [G2-41, 2-methyl-6-phenylisoquinolin-1(2H)-one] here?
A: Its Activity is “Active”.

Q: `Cn1ccc2cc(-c3ccncc3)ccc2c1=O` [G2-42, 2-methyl-6-(pyridin-4-yl)isoquinolin-1(2H)-one] was tested. Which Activity did it give?
A: The Activity was “Active”.

Q: How did the Activity turn out when `Cn1ccc2cc(-c3cccnc3)ccc2c1=O` [G2-43, 2-methyl-6-(pyridin-3-yl)isoquinolin-1(2H)-one] was run?
A: The Activity was “Inactive”.

Q: With `CN(C)c1ccc2c(=O)n(C)ccc2c1` [G2-44, 6-(dimethylamino)-2-methylisoquinolin-1(2H)-one] as the compound, how does the Activity read?
A: The Activity was “Inactive”.

Q: How did the Activity turn out when `Cn1ccc2cc(N3CCCC3)ccc2c1=O` [G2-45, 2-methyl-6-(pyrrolidin-1-yl)isoquinolin-1(2H)-one] was run?
A: The Activity was “Active”.

Q: For `Cn1ccc2cc(N3CC4(COC4)C3)ccc2c1=O` [G2-46, 2-methyl-6-(2-oxa-6-azaspiro[3.3]heptan-6-yl)isoquinolin-1(2H)-one], which Activity is on record?
A: Its Activity is “Inactive”.

Q: With `Cn1ccc2cc(Nc3ccccc3)ccc2c1=O` [G2-47, 2-methyl-6-(phenylamino)isoquinolin-1(2H)-one] as the compound, how does the Activity read?
A: Its Activity is “Inactive”.

Q: Which Activity does the source give for `CN(c1ccccc1)c1ccc2c(=O)n(C)ccc2c1` [G2-48, 2-methyl-6-(methyl(phenyl)amino)isoquinolin-1(2H)-one] here?
A: The Activity was “Active”.

Q: How did the Activity turn out when `Cn1ccc2cc(Nc3ccccn3)ccc2c1=O` [G2-49, 2-methyl-6-(pyridin-2-ylamino)isoquinolin-1(2H)-one] was run?
A: Its Activity is “Inactive”.

Q: For `Cn1ncc2cc(Cl)ccc2c1=O` [G2-51, 6-chloro-2-methylphthalazin-1(2H)-one], which Activity is on record?
A: Its Activity is “Active”.

Q: How did the Activity turn out when `CCn1ccc2cc(Cl)ccc2c1=O` [G2-52, 6-chloro-2-ethylisoquinolin-1(2H)-one] was run?
A: The Activity was “Inactive”.

Q: How did the Activity turn out when `O=c1c2ccc(Cl)cc2ccn1-c1ccccc1` [G2-53, 6-chloro-2-phenylisoquinolin-1(2H)-one] was run?
A: Its Activity is “Inactive”.

Q: Which Activity does the source give for `Cn1c(=O)ccc2ccc(Cl)cc21` [G2-54, 7-chloro-1-methylquinolin-2(1H)-one] here?
A: Its Activity is “Active (Highly Active)”.

Q: How did the Activity turn out when `CNC(=O)c1ccc(Cl)cc1OC` [G2-55, 4-chloro-2-methoxy-N-methylbenzamide] was run?
A: The Activity was “Inactive”.

Q: `Cn1c(=O)ccc2cc(Cl)ccc21` [G2-58, 6-chloro-1-methylquinolin-2(1H)-one] was tested. Which Activity did it give?
A: The Activity was “Inactive”.

Q: Which Activity does the source give for `Cn1ccc2cc(-c3ncccn3)ccc2c1=O` [G2-59, 2-methyl-6-(pyrimidin-2-yl)isoquinolin-1(2H)-one] here?
A: The Activity was “Inactive”.

Q: Which Activity does the source give for `CCCCc1ccc2c(=O)n(C)ccc2c1` [G2-60, 6-butyl-2-methylisoquinolin-1(2H)-one] here?
A: The Activity was “Inactive”.

Q: Which Activity does the source give for `Cn1ccc2cc(N3CCCCC3)ccc2c1=O` [G2-61, 2-methyl-6-(piperidin-1-yl)isoquinolin-1(2H)-one] here?
A: Its Activity is “Inactive”.

Q: How did the Activity turn out when `Cn1ccc2cc(N3CCC(c4ccccc4)CC3)ccc2c1=O` [G2-62, 2-methyl-6-(4-phenylpiperidin-1-yl)isoquinolin-1(2H)-one] was run?
A: Its Activity is “Inactive”.

Q: Which Activity does the source give for `Cn1ccc2cc(-c3ccc(Cl)cc3)ccc2c1=O` [G2-63, 6-(4-chlorophenyl)-2-methylisoquinolin-1(2H)-one] here?
A: Its Activity is “Inactive”.

Q: For `Cn1ccc2cc(-c3ccn[nH]3)ccc2c1=O` [G2-65, 2-methyl-6-(1H-pyrazol-5-yl)isoquinolin-1(2H)-one], which Activity is on record?
A: The Activity was “Inactive”.

Q: With `Cn1ccc2cc(S(N)(=O)=O)ccc2c1=O` [G2-67, 2-methyl-1-oxo-1,2-dihydroisoquinoline-6-sulfonamide] as the compound, how does the Activity read?
A: The Activity was “Inactive”.

Q: Which Activity does the source give for `O=c1ccc2ccc(Cl)cc2[nH]1` [G2-69, 7-chloroquinolin-2(1H)-one] here?
A: Its Activity is “Active (Most Highly Active)”.

Q: For `O=c1ncc2cc(Cl)ccc2[nH]1` [G2-71, 6-chloroquinazolin-2(1H)-one], which Activity is on record?
A: Its Activity is “Inactive”.

Q: With `Cn1c(=O)ccc2ccc(-c3cccnc3)cc21` [G2-83, 1-methyl-7-(pyridin-3-yl)quinolin-2(1H)-one] as the compound, how does the Activity read?
A: The Activity was “Inactive”.

Q: For `Cn1c(=O)ccc2ccc(Nc3ccccn3)cc21` [G2-91, 1-methyl-7-(pyridin-2-ylamino)quinolin-2(1H)-one], which Activity is on record?
A: Its Activity is “Inactive”.

Q: Which Activity does the source give for `O=c1ccc2ccc(F)cc2[nH]1` [G2-124, 7-fluoroquinolin-2(1H)-one] here?
A: Its Activity is “Active”.

Q: Which Activity does the source give for `O=c1ccc2ccc(C3CC3)cc2[nH]1` [G2-156, 7-cyclopropylquinolin-2(1H)-one] here?
A: The Activity was “Active”.

Q: How did the Activity turn out when `O=c1ccc2c(N3CCCCC3)cc(Cl)cc2[nH]1` [G2-195, 7-chloro-5-(piperidin-1-yl)quinolin-2(1H)-one] was run?
A: Its Activity is “Active”.

Q: Which Activity does the source give for `O=c1ccc2c(-c3ccccc3)cc(Cl)cc2[nH]1` [G2-196, 7-chloro-5-phenylquinolin-2(1H)-one] here?
A: Its Activity is “Active”.

Q: For `O=c1ccc2c(-c3ncccn3)cc(Cl)cc2[nH]1` [G2-197, 7-chloro-5-(pyrimidin-2-yl)quinolin-2(1H)-one], which Activity is on record?
A: Its Activity is “Active”.

Q: With `CCCCCCOc1cc(Cl)cc2[nH]c(=O)ccc12` [G2-218, 7-chloro-5-(hexyloxy)quinolin-2(1H)-one] as the compound, how does the Activity read?
A: The Activity was “Active”.

Same assay, conditions: TABLE 1; assay not given

Q: `O=c1ccc2ccc(Cl)cc2[nH]1` [G2-69, 7-chloroquinolin-2(1H)-one] was tested. Which IC50 did it give?
A: Its IC50 is 100 to 1000 nM.

Q: `O=c1ccc2ccc(F)cc2[nH]1` [G2-124, 7-fluoroquinolin-2(1H)-one] was tested. Which IC50 did it give?
A: Its IC50 is 1000 to 10000 nM.

Q: `O=c1ccc2ccc(C3CC3)cc2[nH]1` [G2-156, 7-cyclopropylquinolin-2(1H)-one] was tested. Which IC50 did it give?
A: Its IC50 is 1000 to 10000 nM.

Q: `O=c1ccc2c(N3CCCCC3)cc(Cl)cc2[nH]1` [G2-195, 7-chloro-5-(piperidin-1-yl)quinolin-2(1H)-one] was tested. Which IC50 did it give?
A: The IC50 was 1000 to 10000 nM.

Q: How did the IC50 turn out when `O=c1ccc2c(-c3ccccc3)cc(Cl)cc2[nH]1` [G2-196, 7-chloro-5-phenylquinolin-2(1H)-one] was run?
A: Its IC50 is 1000 to 10000 nM.

Q: `O=c1ccc2c(-c3ncccn3)cc(Cl)cc2[nH]1` [G2-197, 7-chloro-5-(pyrimidin-2-yl)quinolin-2(1H)-one] was tested. Which IC50 did it give?
A: Its IC50 is 1000 to 10000 nM.

Q: For `CCCCCCOc1cc(Cl)cc2[nH]c(=O)ccc12` [G2-218, 7-chloro-5-(hexyloxy)quinolin-2(1H)-one], which IC50 is on record?
A: Its IC50 is 100 to 1000 nM.
